Consider 43 compounds from patent publication US20060030585A1, “Tricyclic delta-opioid modulators” (priority 2004, published 2006).

The target in one assay is delta opioid receptor (Rattus norvegicus, UniProt P33533). In words: Rat brain delta opioid receptor binding assay ([3H]DPDPE). Conditions: Rat delta opioid receptor binding constant, rat forebrain membranes, ~4 nM [3H]DPDPE. How it is done:
Rat Brain Delta Opioid Receptor Binding Assay
Procedure: Male, Sprague Dawley rats (150-250 g, VAF, Charles River, Kingston, N.Y.) were killed by CO2, and their brains removed and placed immediately in ice cold Tris HCl buffer (50 mM, pH 7.4). The forebrains were separated from the remainder of the brain by a coronal transection, beginning dorsally at the colliculi and passing ventrally through the midbrain-pontine junction. After dissection, the forebrains were homogenized in Tris buffer in a Teflon®-glass homogenizer. The homogenate was diluted to a concentration of 1 g of forebrain tissue per 80 mL Tris and centrifuged at 39,000×g for 10 min. The pellet was resuspended in the same volume of Tris buffer containing 5 mM MgCl2 with several brief pulses from a Polytron homogenizer. This particulate preparation was used for the delta opioid binding assays. Following incubation with the delta selective peptide ligand ˜4 nM [^3H]DPDPE at 25° C. for 2.5 h in a 96-well plate with total volume of 1 mL, the plate contents were filtered through Wallac filtermat B sheets on a Tomtec 96-well harvester. The filters were rinsed three times with 2 mL of 10 mM HEPES (pH 7.4), and dried in a 650 W microwave oven for 1.75 min twice. To each sample area 2×50 μL of Betaplate Scint scintillation fluid (LKB) was added and the radioactivity quantified on a LKB (Wallac) 1205 BetaPlate liquid scintillation counter.
Analysis: The data from the scintillation counter were used to calculate either the % inhibition compared to control binding (when only a single concentration of test compound was evaluated) or a Ki value (when a range of concentrations was tested). Percent inhibition was calculated as: [(total dpm-test compound dpm)/(total dpm-nonspecific dpm)]*100. Kd and Ki values were calculated using GraphPad PRISM data analysis program.

The next assay concerns the target mu opioid receptor (Rattus norvegicus, UniProt P33535). Briefly: Rat brain mu opioid receptor binding assay ([3H]DAMGO). Conditions: Rat mu opioid receptor binding constant, rat forebrain membranes, ~0.8 nM [3H]DAMGO. How it is done:
Rat Brain Mu Opioid Receptor Binding Assay
Procedure: Male, Sprague Dawley rats (150-250 g, VAF, Charles River, Kingston, N.Y.) were killed by CO2, and their brains removed and placed immediately in ice cold Tris HCl buffer (50 mM, pH 7.4). The forebrains were separated from the remainder of the brain by a coronal transection, beginning dorsally at the colliculi and passing ventrally through the midbrain-pontine junction. After dissection, the forebrains were homogenized in Tris buffer in a Teflon®-glass homogenizer. The homogenate was diluted to a concentration of 1 g of forebrain tissue per 80 mL Tris and centrifuged at 39,000×g for 10 min. The pellet was resuspended in the same volume of Tris buffer containing 5 mM MgCl2 with several brief pulses from a Polytron homogenizer. This particulate preparation was used for the delta opioid binding assays.
Analysis: The data from the scintillation counter were used to calculate either the % inhibition compared to control binding (when only a single concentration of test compound was evaluated) or a Ki value (when a range of concentrations tested). Percent inhibition was calculated as: [(total dpm-test compound dpm)/(total dpm-nonspecific dpm)]*100. Kd and Ki values were calculated using GraphPad PRISM data analysis program.

The term Ki denotes the dissociation constant of the complex between target and ligand, obtained from inhibition or displacement.

Where two headings read alike, the source gives them in different places. Where only a bound is given, the exact number is not on record here.

delta opioid receptor, sequence (P33533 whole entry): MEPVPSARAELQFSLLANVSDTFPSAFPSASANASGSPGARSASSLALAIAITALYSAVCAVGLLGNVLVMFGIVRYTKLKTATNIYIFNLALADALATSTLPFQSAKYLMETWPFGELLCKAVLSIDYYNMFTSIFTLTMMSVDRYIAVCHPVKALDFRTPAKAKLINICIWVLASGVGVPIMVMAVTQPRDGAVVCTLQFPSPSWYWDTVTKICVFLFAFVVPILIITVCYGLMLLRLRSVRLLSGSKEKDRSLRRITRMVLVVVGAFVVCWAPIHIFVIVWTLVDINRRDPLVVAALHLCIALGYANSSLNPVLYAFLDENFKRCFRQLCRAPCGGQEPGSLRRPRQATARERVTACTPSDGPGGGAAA
mu opioid receptor, sequence (P33535 whole entry): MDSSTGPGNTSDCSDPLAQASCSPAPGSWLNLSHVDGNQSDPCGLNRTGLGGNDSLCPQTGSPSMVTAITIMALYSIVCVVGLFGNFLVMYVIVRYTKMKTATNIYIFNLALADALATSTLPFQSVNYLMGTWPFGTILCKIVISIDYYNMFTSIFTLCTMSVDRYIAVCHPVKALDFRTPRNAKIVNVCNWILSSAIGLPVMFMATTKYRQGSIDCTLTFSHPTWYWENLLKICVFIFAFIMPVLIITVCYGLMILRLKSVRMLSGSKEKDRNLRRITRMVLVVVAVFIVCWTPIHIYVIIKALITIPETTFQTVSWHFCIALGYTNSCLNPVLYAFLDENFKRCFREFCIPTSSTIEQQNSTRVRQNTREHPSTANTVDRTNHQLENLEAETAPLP

On to `O=C(c1ccc2c(c1)Oc1ccccc1C2=C1CC2CCC(C1)N2)N(CC(F)(F)F)CC(F)(F)F` [Cpd 48], for which the Ki at delta opioid receptor (read-out: DOR Ki) was 939 nM; at mu opioid receptor (read-out: MOR Ki), 2060 nM. For `O=C(NCc1ccccc1)c1ccc2c(c1)Oc1ccccc1C2=C1CC2CCC(C1)N2` [Cpd 40], in that order: 456 nM and 3090 nM. Regarding `O=c1[nH]c(-c2ccc3c(c2)Oc2ccccc2C3=C2CC3CCC(C2)N3)ns1` [Cpd 95], the Ki at delta opioid receptor (read-out: DOR Ki) stood at 159 nM; at mu opioid receptor (read-out: MOR Ki), 4930 nM. For `COc1cccc2c1Oc1cc(-c3ccncc3)ccc1C2=C1CC2CCC(C1)N2` [Cpd 107], in that order: 106 nM and 597 nM. `O=C(NC(CO)Cc1ccccc1)c1ccc2c(c1)Oc1ccccc1C2=C1CC2CCC(C1)N2` (single isomer, unassigned) [Cpd 27]: the Ki on delta opioid receptor (DOR Ki) and on mu opioid receptor (MOR Ki) was 100 nM each time.

Turning to `c1ccc2c(c1)Oc1cc(C3=NCCN3)ccc1C2=C1CC2CCC(C1)N2` [Cpd 33], the Ki is 224 nM at delta opioid receptor (DOR Ki) and 315 nM on mu opioid receptor (MOR Ki). With `O=C(NC1CCC(C(F)(F)F)CC1)c1ccc2c(c1)Oc1ccccc1C2=C1CC2CCC(C1)N2` (centres unmarked) [Cpd 62], the Ki on delta opioid receptor (read-out: DOR Ki) turned out to be 309 nM; on mu opioid receptor (read-out: MOR Ki), 7400 nM. For `CC(C)CN(CC(C)C)C(=N)c1ccc2c(c1)Oc1ccccc1C2=C1CC2CCC(C1)N2` [Cpd 28], the Ki came to 107 nM on delta opioid receptor (DOR Ki) and 3100 nM at mu opioid receptor (MOR Ki).

On to `COc1cccc(-c2ccc3c(c2)Oc2ccccc2C3=C2CC3CCC(C2)N3)c1` [Cpd 57], for which the results for the Ki on delta opioid receptor (DOR Ki) and at mu opioid receptor (MOR Ki) were 6960 nM and 19700 nM, respectively. For `OCc1cccc(-c2ccc3c(c2)Oc2ccccc2C3=C2CC3CCC(C2)N3)c1` [Cpd 23], the Ki on delta opioid receptor (DOR Ki) is 75 nM; on mu opioid receptor (MOR Ki) it was 3510 nM. As to `O=C(c1ccc2c(c1)Oc1ccccc1C2=C1CC2CCC(C1)N2)N1CCC(O)C1` (single isomer, unassigned) [Cpd 70], the Ki at delta opioid receptor (DOR Ki) turned out to be 63 nM; on mu opioid receptor (MOR Ki) it was 1660 nM. For the compound `Cc1nc(-c2ccc3c(c2)Oc2ccccc2C3=C2CC3CCC(C2)N3)no1` [Cpd 36, 3-[3-(5-Methyl-[1,2,4]oxadiazol-3-yl)-xanthen-9-ylidene]-8-aza-bicyclo[3.2.1]octane], the Ki at delta opioid receptor (DOR Ki) worked out at 373 nM; at mu opioid receptor (MOR Ki), 3550 nM.

Regarding `c1ccc(CN2C3CCC2CC(=C2c4ccccc4Sc4cc(-c5cccnc5)ccc42)C3)nc1` [Cpd 117], the Ki at delta opioid receptor (DOR Ki) came to 95 nM; on mu opioid receptor (MOR Ki) it was 97 nM. The corresponding values for `Cn1nnnc1-c1ccc2c(c1)Oc1ccccc1C2=C1CC2CCC(C1)N2` [Cpd 21, 3-[3-(1-Methyl-1 H-tetrazol-5-yl)-xanthen-9-ylidene]-8-aza-bicyclo[3.2.1]octane] are 54 nM and 1740 nM. Take `CC(=O)Nc1ccccc1-c1ccc2c(c1)Oc1ccccc1C2=C1CC2CCC(C1)N2C(=O)C(F)(F)F` [Cpd 131]: the Ki on delta opioid receptor (read-out: DOR Ki) and at mu opioid receptor (read-out: MOR Ki) was greater than 10000 nM in each case. With `COc1cccc2c1Oc1cc(-c3ccoc3)ccc1C2=C1CC2CCC(C1)N2` [Cpd 105], the results for the Ki at delta opioid receptor (read-out: DOR Ki) and at mu opioid receptor (read-out: MOR Ki) were 88 nM and 497 nM, respectively. On to `Cc1nnc(-c2ccc3c(c2)Oc2ccccc2C3=C2CC3CCC(C2)N3)[nH]1` [Cpd 35, 3-[3-(5-Methyl-4H-[1,2,4]triazol-3-yl)-xanthen-9-ylidene]-8-aza-bicyclo[3.2.1]octane], for which the Ki came to 266 nM on delta opioid receptor (DOR Ki) and 673 nM on mu opioid receptor (MOR Ki).

Turning to `O=C(NCCO)c1ccc2c(c1)Oc1ccccc1C2=C1CC2CCC(C1)N2` [Cpd 123], the Ki on delta opioid receptor (read-out: DOR Ki) worked out at 106 nM; at mu opioid receptor (read-out: MOR Ki), 1020 nM. As to `COC(=O)c1ccc2c(c1)Oc1cc(C(=O)OC)ccc1C2=C1CC2CCC(C1)N2` [Cpd 78, 9-(8-Aza-bicyclo[3.2.1]oct-3-ylidene)-9H-xanthene-3,6-dicarboxylic acid dimethyl ester], the figures for the inhibitory constant (Ki) on delta opioid receptor (DOR Ki) and on mu opioid receptor (MOR Ki) were 1150 nM and 7000 nM, respectively. With `c1ccc2c(c1)Oc1cc(-c3nnn[nH]3)ccc1C2=C1CC2CCC(C1)N2` [Cpd 81], the Ki is 0.5 nM on delta opioid receptor (read-out: DOR Ki) and 261 nM on mu opioid receptor (read-out: MOR Ki). In the case of `Nc1ccc(-c2ccc3c(c2)Oc2ccccc2C3=C2CC3CCC(C2)N3)cc1` [Cpd 42], the Ki on delta opioid receptor (DOR Ki) amounted to 490 nM; at mu opioid receptor (MOR Ki) it was 1310 nM. For `O=S1NC(c2ccc3c(c2)Oc2ccccc2C3=C2CC3CCC(C2)N3)=NO1` (centres unmarked) [Cpd 10, 3-[3-(2-Oxo-2,3-dihydro-2|4-[1,2,3,5]oxathiadiazol-4-yl)-xanthen-9-ylidene]-8-aza-bicyclo[3.2.1]octane], in that order: 15.1 nM and 819 nM. As to `c1cncc(-c2ccc3c(c2)Sc2ccccc2C3=C2CC3CCC(C2)N3Cc2ccoc2)c1` [Cpd 116, 8-Furan-3-ylmethyl-3-(3-pyridin-3-yl-thioxanthen-9-ylidene)-8-aza-bicyclo[3.2.1]octane], the Ki turned out to be 93 nM on delta opioid receptor (DOR Ki) and 113 nM at mu opioid receptor (read-out: MOR Ki).

In the case of `O=C(NC1CCC(c2ccccc2)CC1)c1ccc2c(c1)Oc1ccccc1C2=C1CC2CCC(C1)N2` (centres unmarked) [Cpd 34], the Ki at delta opioid receptor (read-out: DOR Ki) was 247 nM; at mu opioid receptor (read-out: MOR Ki), 6240 nM. `COC(=O)[C@H](CO)NC(=O)c1ccc2c(c1)Oc1ccccc1C2=C1CC2CCC(C1)N2` [Cpd 37]: the Ki at delta opioid receptor (DOR Ki) was determined as 412 nM; on mu opioid receptor (MOR Ki) it was 950 nM. For `Nc1ccccc1-c1ccc2c(c1)Oc1ccccc1C2=C1CC2CCC(C1)N2` [Cpd 25], in that order: 77.4 nM and 1660 nM.

On to `O=C(N1C2CCC1CC(=C1c3ccccc3Oc3cc(-c4cccnc4)ccc31)C2)C(F)(F)F` [Cpd 128], for which the Ki at delta opioid receptor (read-out: DOR Ki) and on mu opioid receptor (read-out: MOR Ki) was greater than 10000 nM in each case.

Regarding `CC(=O)Nc1ccccc1-c1ccc2c(c1)Sc1ccccc1C2=C1CC2CCC(C1)N2Cc1ccccn1` [Cpd 121], the Ki on delta opioid receptor (DOR Ki) was determined as 3.7 nM; on mu opioid receptor (read-out: MOR Ki), 137 nM.

As to `CS(=O)(=O)c1ccc(-c2ccc3c(c2)Oc2ccccc2C3=C2CC3CCC(C2)N3)cc1` [Cpd 53], the Ki on delta opioid receptor (DOR Ki) was found to be 3140 nM; on mu opioid receptor (MOR Ki), 3290 nM. For `Oc1cccc(-c2ccc3c(c2)Oc2ccccc2C3=C2CC3CCC(C2)N3)c1` [Cpd 38], in that order: 418 nM and 706 nM. As to `CCOC(=O)N1C2CCC1CC(=C1c3ccccc3Oc3cc(C(=O)N(C)CCO)ccc31)C2` [Cpd 75], the Ki at delta opioid receptor (read-out: DOR Ki) came to 4470 nM; on mu opioid receptor (read-out: MOR Ki), 10000 nM. For `CC(=O)Nc1ccccc1-c1ccc2c(c1)Sc1ccccc1C2=C1CC2CCC(C1)N2Cc1ncc[nH]1` [Cpd 119], in that order: 142 nM and 349 nM. For `CC(C)(CO)NC(=O)c1ccc2c(c1)Oc1ccccc1C2=C1CC2CCC(C1)N2` [Cpd 97], in that order: 266 nM and 1900 nM. Turning to `c1cncc(-c2ccc3c(c2)Sc2ccccc2C3=C2CC3CCC(C2)N3Cc2ncc[nH]2)c1` [Cpd 115], the Ki on delta opioid receptor (DOR Ki) was 91 nM; on mu opioid receptor (MOR Ki), 60 nM. For `CC(C)CNC(=N)c1ccc2c(c1)Oc1ccccc1C2=C1CC2CCC(C1)N2` [Cpd 49], in that order: 1330 nM and 4020 nM. `CN(C(=O)c1ccc2c(c1)Oc1ccccc1C2=C1CC2CCC(C1)N2)c1ccc(F)cc1` [Cpd 66]: the Ki amounted to 93 nM on delta opioid receptor (DOR Ki) and 935 nM on mu opioid receptor (MOR Ki). `COc1cccc2c1Oc1cc(Br)ccc1C2=C1CC2CCC(C1)N2` [Cpd 79]: the Ki is 192 nM at delta opioid receptor (DOR Ki) and 4780 nM at mu opioid receptor (MOR Ki).

For `NC(=O)c1ccccc1-c1ccc2c(c1)Oc1ccccc1C2=C1CC2CCC(C1)N2` [Cpd 18], the Ki came to 38 nM on delta opioid receptor (DOR Ki) and 1540 nM at mu opioid receptor (MOR Ki). `COc1ccccc1-c1ccc2c(c1)Oc1ccccc1C2=C1CC2CCC(C1)N2` [Cpd 44]: the Ki worked out at 659 nM on delta opioid receptor (DOR Ki) and 7580 nM on mu opioid receptor (MOR Ki). For `CN(C(=O)c1ccc2c(c1)Oc1ccccc1C2=C1CC2CCC(C1)N2)c1ccccc1` [Cpd 14], the Ki amounted to 27.1 nM at delta opioid receptor (DOR Ki) and 1160 nM at mu opioid receptor (MOR Ki). In the case of `Cc1cccc(-c2ccc3c(c2)Oc2ccccc2C3=C2CC3CCC(C2)N3)c1` [Cpd 46], the Ki on delta opioid receptor (DOR Ki) stood at 723 nM.

In the case of `COc1ccc(-c2ccc3c(c2)Oc2ccccc2C3=C2CC3CCC(C2)N3)cn1` [Cpd 32], the Ki at delta opioid receptor (DOR Ki) was determined as 160 nM. On the same count and under the same terms, in the case of `Fc1ccc(-c2ccc3c(c2)Oc2ccccc2C3=C2CC3CCC(C2)N3)cc1` [Cpd 54] it was 4470 nM.
